In paper PMC7204994 (Frontiers in Pharmacology, 2020):
pIC50: −log10 of the molar value.

How the values were obtained:
[1] = molecular target: T1, LIMK1 (Homo sapiens, UniProt P53667); assay: in vitro GST-cofilin phosphorylation by recombinant LIMK1, Western blot, […] compound; type: biochemical; set-up: recombinant human LIMK1 (Millipore #14-656)
[2] = molecular target: T1, LIMK1; assay: cell-free LIMK1 biochemical assay; details: cited from earlier work

T1 sequence (P53667 whole entry): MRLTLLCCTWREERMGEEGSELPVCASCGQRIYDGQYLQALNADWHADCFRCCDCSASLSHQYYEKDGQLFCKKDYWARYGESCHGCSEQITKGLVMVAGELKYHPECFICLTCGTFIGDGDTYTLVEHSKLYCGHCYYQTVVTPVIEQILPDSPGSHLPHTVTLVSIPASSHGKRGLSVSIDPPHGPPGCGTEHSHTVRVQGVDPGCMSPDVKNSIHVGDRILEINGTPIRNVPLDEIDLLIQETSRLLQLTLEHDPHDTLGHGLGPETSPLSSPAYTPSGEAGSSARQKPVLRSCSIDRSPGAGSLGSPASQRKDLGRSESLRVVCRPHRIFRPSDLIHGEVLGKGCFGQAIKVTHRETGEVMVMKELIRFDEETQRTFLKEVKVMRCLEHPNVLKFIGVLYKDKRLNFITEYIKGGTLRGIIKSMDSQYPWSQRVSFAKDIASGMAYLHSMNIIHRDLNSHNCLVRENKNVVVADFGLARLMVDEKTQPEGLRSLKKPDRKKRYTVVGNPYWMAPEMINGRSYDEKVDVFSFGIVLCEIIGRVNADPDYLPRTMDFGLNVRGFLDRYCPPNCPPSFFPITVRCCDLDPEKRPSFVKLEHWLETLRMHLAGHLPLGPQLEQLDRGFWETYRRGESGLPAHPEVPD

| SMILES | in vitro GST-cofilin phosphorylation by recombinant LIMK1, Western blot, 10 μM c [1] | pIC50 [2] |
| --- | --- | --- |
| Cn1cc(-c2[nH]c3cc(NC(=O)C(N)C4CCCCC4)cc4c3c2C=NNC4=O)cn1 (centres unmarked) [PF0477736] | showed that PF0477736 is indeed able to directly inhibit LIMK |  |
| Cc1c[nH]c2ncnc(-c3ccc(NC(=O)N(CCN)c4ccc(Cl)cc4)c(F)c3)c12 [SR10905, 1-(2-aminoethyl)-1-(4-chlorophenyl)-3-(2-fluoro-4-(5-methyl-7H-pyrrolo[2,3-d]pyrimidin-4-yl)phenyl)urea] |  | 7.82 |
